Test systems include A549 NSCLC; COLO 205 colon; SNB-75 CNS; SNB-19 CNS; MDA-MB-435; DU-145 prostate; SW-620 colon; CAKI-1 renal; UACC-62 melanoma; HCC-2998 colon.
Experiment in all cases: growth of human tumour cells (NCI), 48 h

Molecules are shown by their SMILES. “And” between values parts separate entries of the source, which are not always exact repeats. Equal entries are not always repeated.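 Method: 48-hour compound exposure of cells in 96-well plates, five concentrations, linear interpolation of endpoints. Abbreviation: GI50, concentration required for 50% inhibition of growth. TGI: concentration producing complete growth inhibition.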

Data on eight compounds can be found in PubChem BioAssay (NCI).

Take `O=c1nc2n(-c3ccc(Cl)cc3)c3ccc([N+](=O)[O-])cc3cc-2c(=O)[nH]1`: the GI50 in the assay on A549 NSCLC is 30.4 µM; in the assay with COLO 205 colon, 13.2 µM; in the assay on SNB-75 CNS it was above 100 µM; with SNB-19 CNS it was 17.8 µM; in the assay with MDA-MB-435 it was 15.8 µM; in the assay on DU-145 prostate, 29.1 µM. The GI50 in the assay with SW-620 colon was 6.11 µM; in the assay with CAKI-1 renal it was 21.5 µM; in the assay on UACC-62 melanoma it was 11.8 µM; in the assay on HCC-2998 colon, 22.3 µM. Moreover, the TGI in the assay with A549 NSCLC is above 100 µM; in the assay on COLO 205 colon, 31.8 µM; in the assay on SNB-75 CNS, above 100 µM; with SNB-19 CNS it was 83.3 µM; in the assay on MDA-MB-435, 37.7 µM; with DU-145 prostate, 79.5 µM. The TGI in the assay with SW-620 colon is above 100 µM; in the assay with CAKI-1 renal it was 60.1 µM; in the assay with UACC-62 melanoma, 28.6 µM; with HCC-2998 colon it was 54.3 µM.

In the case of `CC1=C2C[C@H]3[C@@H](CC[C@@H]4CC(NS(C)(=O)=O)CC[C@@]43C)[C@@H]2CC[C@@]2(C1)O[C@@H]1C[C@H](C)CN[C@H]1[C@H]2C` (stereo partly specified), the GI50 in the assay on A549 NSCLC is 4.26 µM; in the assay on COLO 205 colon, 2.25 µM; in the assay on SNB-75 CNS, 3.07 µM; in the assay on SNB-19 CNS, 12.5 µM; in the assay with MDA-MB-435, 8.1 µM; in the assay with DU-145 prostate, 14.4 µM. For the same compound, the GI50 in the assay on SW-620 colon was 13.8 µM; in the assay with CAKI-1 renal, 7.63 µM; in the assay on UACC-62 melanoma it was 9.27 µM; in the assay on HCC-2998 colon, 14.1 µM. Also, the TGI with A549 NSCLC is 17.5 µM; with COLO 205 colon it was 4.43 µM; in the assay with SNB-75 CNS, 15.9 µM; with SNB-19 CNS, 27 µM; with MDA-MB-435, 22.8 µM; with DU-145 prostate it was 28 µM. For the same compound, the TGI came to 28.9 µM in the assay with SW-620 colon, 22 µM in the assay on CAKI-1 renal, 21.8 µM in the assay with UACC-62 melanoma and 28.2 µM in the assay with HCC-2998 colon.

`CC(C)[C@H](CO)Nc1nc(Nc2ccc(C(=O)NCCNS(=O)(=O)c3cccc4c(N(C)C)cccc34)c(Cl)c2)c2ncn(C(C)C)c2n1`: the GI50 in the assay with A549 NSCLC is 2.91 µM; with COLO 205 colon, 1.76 µM; in the assay on SNB-75 CNS, 1.75 µM; with SNB-19 CNS it was 2.93 µM; in the assay with MDA-MB-435 it was 2.43 µM; in the assay on DU-145 prostate, 4.41 µM. In addition, the GI50 with SW-620 colon was 2.56 µM; with CAKI-1 renal it was 5.78 µM; in the assay with UACC-62 melanoma it was 3.4 µM; in the assay with HCC-2998 colon, 2.9 µM. Further, the TGI in the assay on A549 NSCLC is above 77.7 µM; in the assay on COLO 205 colon, 3.47 µM; in the assay with SNB-75 CNS, above 100 µM; in the assay on SNB-19 CNS it was above 100 µM; in the assay on MDA-MB-435 it was above 44.2 µM; in the assay with DU-145 prostate it was above 100 µM. The TGI in the assay on SW-620 colon, in the assay with CAKI-1 renal, in the assay on UACC-62 melanoma and in the assay with HCC-2998 colon was above 100 µM throughout.

For `CCOC(=O)c1[nH]c(Br)c(-c2ccc(Br)cc2)c1Br`, the GI50 with A549 NSCLC was 8.15 µM; with SNB-75 CNS, 0.461 µM; in the assay with SNB-19 CNS, 0.454 µM; in the assay with MDA-MB-435 it was 0.0997 µM; in the assay with DU-145 prostate, 2.19 µM; in the assay on CAKI-1 renal it was 0.49 µM. Moreover, the GI50 in the assay on UACC-62 melanoma was 0.362 µM; in the assay on HCC-2998 colon it was 11.6 µM. Further, the TGI in the assay with A549 NSCLC was 29.8 µM; in the assay on COLO 205 colon, 2.54 µM and 1.85 µM; with SNB-75 CNS, 2.68 µM and 4.41 µM; in the assay with SNB-19 CNS, 10.4 µM; in the assay on MDA-MB-435, 0.546 µM and 0.289 µM; in the assay on DU-145 prostate it was 55.8 µM. The TGI with SW-620 colon was 14 µM; with CAKI-1 renal, 3.06 µM and 2.62 µM; in the assay on HCC-2998 colon it was above 100 µM.

On to `Nc1ncnc2c1nc(Cl)n2C1OC2COP(=O)(O)OC2C1O` (stereo unspecified), for which the TGI in the assay with A549 NSCLC was above 300 µM; with COLO 205 colon, above 300 µM; with SNB-75 CNS, above 213 µM; in the assay with SNB-19 CNS it was above 300 µM; in the assay with MDA-MB-435, above 255 µM; with DU-145 prostate, above 300 µM. Besides, the TGI in the assay on SW-620 colon is above 300 µM; in the assay with CAKI-1 renal, 153 µM and > 100 µM; in the assay with UACC-62 melanoma, above 300 µM; in the assay with HCC-2998 colon, above 300 µM.

In the case of `O=C1CCCCCCCC/C=C\CC(c2ccco2)O1` (stereo unspecified), the GI50 in the assay with A549 NSCLC was 46 µM; in the assay on COLO 205 colon, 31.6 µM; in the assay on SNB-75 CNS, 21.2 µM; in the assay on SNB-19 CNS, 13.1 µM; in the assay on MDA-MB-435, 51.5 µM; in the assay on DU-145 prostate, 44.8 µM. Besides, the GI50 is 41.5 µM with SW-620 colon, 49.4 µM in the assay with CAKI-1 renal, 14.6 µM with UACC-62 melanoma and above 100 µM in the assay on HCC-2998 colon. In addition, the TGI in the assay on A549 NSCLC is above 100 µM; in the assay on COLO 205 colon, above 100 µM; with SNB-75 CNS it was 61.8 µM; in the assay with SNB-19 CNS, 40.3 µM; with MDA-MB-435 it was above 100 µM; with DU-145 prostate it was above 100 µM. Also, the TGI in the assay with SW-620 colon was above 100 µM; in the assay with CAKI-1 renal it was above 100 µM; in the assay with UACC-62 melanoma, 68.9 µM; in the assay with HCC-2998 colon, above 100 µM.

As for `CC(C)(O)CS(=O)(=O)Nc1ccc2c(c1)CCN(C(=O)COc1cccnc1)C2`, the GI50 was above 100 µM in the assay on A549 NSCLC; 0.141 µM with COLO 205 colon; above 100 µM with SNB-75 CNS; 0.518 µM in the assay with MDA-MB-435; 0.618 µM with DU-145 prostate; 0.0495 µM in the assay with SW-620 colon. Besides, the GI50 was above 92.4 µM in the assay on CAKI-1 renal, above 100 µM in the assay with UACC-62 melanoma and above 26.5 µM in the assay with HCC-2998 colon. Besides, the TGI with A549 NSCLC, in the assay on COLO 205 colon, in the assay with SNB-75 CNS, in the assay on SNB-19 CNS, in the assay on MDA-MB-435 and with DU-145 prostate was above 100 µM in each case. Also, the TGI with SW-620 colon, in the assay with CAKI-1 renal, in the assay with UACC-62 melanoma and with HCC-2998 colon was above 100 µM throughout.

With `C=C(CN1C(=O)[C@H]2CCCN2C(=O)c2ccccc21)c1ccc(C(=O)O)cc1`, the GI50 in the assay on A549 NSCLC, in the assay with COLO 205 colon, in the assay on SNB-75 CNS, in the assay with SNB-19 CNS, in the assay on MDA-MB-435 and in the assay on DU-145 prostate was above 100 µM each time. In addition, the GI50 in the assay on SW-620 colon, in the assay on CAKI-1 renal, with UACC-62 melanoma and in the assay on HCC-2998 colon was above 100 µM throughout. Moreover, the TGI with A549 NSCLC, in the assay on COLO 205 colon, in the assay on SNB-75 CNS, in the assay on SNB-19 CNS, in the assay on MDA-MB-435 and in the assay with DU-145 prostate was above 100 µM throughout. Moreover, the TGI in the assay with SW-620 colon, with CAKI-1 renal, in the assay with UACC-62 melanoma and with HCC-2998 colon was above 100 µM in each case.
